# Target: cGMP-specific 3',5'-cyclic phosphodiesterase (Homo sapiens, UniProt O76074)
# Assay: Inhibition of PDE5
row,Structure (SMILES),IC50
1,CCCOc1ccc(NC(=O)CCC)cc1-c1nc2c(CCC)nn(C)c2c(=O)[nH]1,0.269 nM
2,CCCOc1ccc(NC(C)=O)cc1-c1nc2c(CCC)nn(C)c2c(=O)[nH]1,0.813 nM
3,CCCc1nn(C)c2c(=O)[nH]c(-c3cc(S(=O)(=O)N4CCN(CCO)CC4)cc4c3OCO4)nc12,331 nM
4,CCCOc1ccc(NC(=O)CC)cc1-c1nc2c(CCC)nn(C)c2c(=O)[nH]1,0.38 nM
5,CCCc1nn(C)c2c(=O)[nH]c(-c3cc(S(=O)(=O)N4CCN(CCO)CC4)cc4c3OCC4)nc12,204 nM
6,CCCc1nn(C)c2c(=O)[nH]c(-c3cc(S(=O)(=O)N4CCN(C)CC4)cc4c3OCC4)nc12,240 nM
7,CCCOc1ccc(NC(=O)C(C)C)cc1-c1nc2c(CCC)nn(C)c2c(=O)[nH]1,0.347 nM
8,CCCc1nn(C)c2c(=O)[nH]c(-c3cc(S(=O)(=O)N4CCN(CCO)CC4)cc4c3OCCC4)nc12,12.6 nM
9,CCCc1nn(C)c2c(=O)[nH]c(-c3cc(S(=O)(=O)N4CCN(CCO)CC4)cc4c3OCCO4)nc12,6.31 nM
10,CCCc1nn(C)c2c(=O)[nH]c(-c3cc(S(=O)(=O)N4CCN(C)CC4)cc4c3OCCO4)nc12,7.94 nM

# Further lines, results first:
row,IC50,Structure (SMILES)
1,0.331 nM,CCCc1nn(C)c2c(=O)[nH]c(-c3cc(S(=O)(=O)N4CCC(CC(=O)O)CC4)ccc3OCC)nc12
2,0.501 nM,CCCOc1ccc(S(=O)(=O)N2CCC(CCCC(=O)O)CC2)cc1-c1nc2c(CCC)nn(C)c2c(=O)[nH]1
3,0.151 nM,CCCOc1ccc(S(=O)(=O)N2CCC(C(=O)O)CC2)cc1-c1nc2c(CCC)nn(C)c2c(=O)[nH]1
4,0.407 nM,CCCc1nn(C)c2c(=O)[nH]c(-c3cc(S(=O)(=O)N4CCN(CCC(=O)O)CC4)ccc3OCC)nc12
5,0.151 nM,CCCc1nn(C)c2c(=O)[nH]c(-c3cc(S(=O)(=O)N4CCC(CCC(=O)O)CC4)ccc3OCC)nc12
6,0.11 nM,CCCOc1ccc(S(=O)(=O)N2CCC(CC(=O)O)CC2)cc1-c1nc2c(CCC)nn(C)c2c(=O)[nH]1
7,0.0501 nM,CCCOc1ccc(S(=O)(=O)N2CCC(CCC(=O)O)CC2)cc1-c1nc2c(CCC)nn(C)c2c(=O)[nH]1
8,0.219 nM,CCCc1nn(C)c2c(=O)[nH]c(-c3cc(S(=O)(=O)N4CCC(CCCC(=O)O)CC4)ccc3OCC)nc12
9,0.513 nM,CCCc1nn(C)c2c(=O)[nH]c(-c3cc(S(=O)(=O)N4CCC(C(=O)O)CC4)ccc3OCC)nc12
10,0.417 nM,CCCOc1ccc(NC(=O)C2CCCCC2)cc1-c1nc2c(CCC)nn(C)c2c(=O)[nH]1

# From ChEMBL document CHEMBL1140026 (Bioorg Med Chem Lett, 2007)
